Earlier results in Sander's compilation of Henry's law constants (doi:10.1016/0045-6535(88)90142-7).

Assay: Henry solubility constant Hcp at 298.15 K (mol/(m3 Pa))
Details: reference: Ryan et al. (1988); cited value

c1ccc2c(c1)ccc1c3ccccc3ccc21 [chrysene]
Henry solubility constant Hcp: 0.0046

ClC1C(Cl)C(Cl)C(Cl)C(Cl)C1Cl (stereo not drawn) [β-1,2,3,4,5,6-hexachlorocyclohexane]
Henry solubility constant Hcp: 0.67

CCCCC(CC)COC(=O)c1ccccc1C(=O)OCC(CC)CCCC (stereo not drawn) [bis(2-ethylhexyl)-phthalate]
Henry solubility constant Hcp: 34

CC(Cl)CCl (stereo not drawn) [1,2-dichloropropane]
Henry solubility constant Hcp: 0.0034

Clc1ccc(C(c2ccc(Cl)cc2)C(Cl)Cl)cc1 [1,1-dichloro-2,2-bis-(4-chlorophenyl)-ethane]
Henry solubility constant Hcp: 0.00081

BrC(Br)Br [tribromomethane]
Henry solubility constant Hcp: 0.017

Cc1cc(O)ccc1Cl [4-chloro-3-methylphenol]
Henry solubility constant Hcp: 4

Cc1ccc(O)c(C)c1 [1-hydroxy-2,4-dimethylbenzene]
Henry solubility constant Hcp: 0.54

ClC=CCCl [1,3-dichloropropene]
Henry solubility constant Hcp: 0.0081

CCCCCCCCOC(=O)c1ccccc1C(=O)OCCCCCCCC [dioctyl phthalate]
Henry solubility constant Hcp: 34

ClC=C(Cl)Cl [trichloroethene]
Henry solubility constant Hcp: 0.0011

c1ccc2c(c1)ccc1ccccc12 [phenanthrene]
Henry solubility constant Hcp: 0.25

CCBr [bromoethane]
Henry solubility constant Hcp: 9.2e-05

CC(CCl)OC(C)CCl (stereo not drawn) [bis-(2-chloroisopropyl) ether]
Henry solubility constant Hcp: 0.0086

ClC1=C(Cl)[C@]2(Cl)[C@H]3[C@H]([C@@H]4C=C[C@H]3C4)[C@@]1(Cl)C2(Cl)Cl [aldrin]
Henry solubility constant Hcp: 0.82

CCc1ccccc1 [ethylbenzene]
Henry solubility constant Hcp: 0.0016

CCCCOC(=O)c1ccccc1C(=O)OCCCC [dibutyl phthalate]
Henry solubility constant Hcp: 34

Clc1ccc2ccccc2c1 [2-chloronaphthalene]
Henry solubility constant Hcp: 0.031

ClCCl [dichloromethane]
Henry solubility constant Hcp: 0.0047

CC(Cl)(Cl)Cl [1,1,1-trichloroethane]
Henry solubility constant Hcp: 0.00031

c1ccc2cc3ccccc3cc2c1 [anthracene]
Henry solubility constant Hcp: 0.037

c1ccc2c(c1)Cc1ccccc1-2 [2,3-benzindene]
Henry solubility constant Hcp: 0.084

ClC1=C(Cl)C2(Cl)C3C(Cl)C=CC3C1(Cl)C2(Cl)Cl (stereo not drawn) [heptachlor]
Henry solubility constant Hcp: 0.0065

ClC(Cl)=C(Cl)C(Cl)=C(Cl)Cl [hexachlorobutadiene]
Henry solubility constant Hcp: 0.00094

ClC(Cl)C(Cl)Cl [1,1,2,2-tetrachloroethane]
Henry solubility constant Hcp: 0.025

Clc1ccccc1 [chlorobenzene]
Henry solubility constant Hcp: 0.0027

ClC1=C(Cl)[C@]2(Cl)[C@@H]3[C@@H]4C[C@@H]([C@H]5O[C@@H]45)[C@@H]3[C@@]1(Cl)C2(Cl)Cl [dieldrin]
Henry solubility constant Hcp: 1.3

C=CC#N [2-propenenitrile]
Henry solubility constant Hcp: 0.11

ClC1=C(Cl)C(Cl)(Cl)C(Cl)=C1Cl [hexachlorocyclopentadiene]
Henry solubility constant Hcp: 0.00027

O=[N+]([O-])c1ccc(O)cc1 [4-nitrophenol]
Henry solubility constant Hcp: 1.6

ClC(Cl)(Cl)Cl [tetrachloromethane]
Henry solubility constant Hcp: 0.00045

c1cc2c3c(cccc3c1)CC2 [acenaphthene]
Henry solubility constant Hcp: 0.04

ClC(Cl)=C(c1ccc(Cl)cc1)c1ccc(Cl)cc1 [1,1-dichloro-2,2-bis-(4-chlorophenyl)-ethene]
Henry solubility constant Hcp: 0.45

O=[N+]([O-])c1ccccc1O [2-nitrophenol]
Henry solubility constant Hcp: 1.3

c1ccc2ccccc2c1 [naphthalene]
Henry solubility constant Hcp: 0.02

C1=Cc2cccc3cccc1c23 [acenaphthylene]
Henry solubility constant Hcp: 0.084

COC(=O)c1ccccc1C(=O)OC [dimethyl phthalate]
Henry solubility constant Hcp: 50

Clc1ccc(Cl)cc1 [1,4-dichlorobenzene]
Henry solubility constant Hcp: 0.0041

c1ccccc1 [benzene]
Henry solubility constant Hcp: 0.0018

C=C(Cl)Cl [1,1-dichloroethene]
Henry solubility constant Hcp: 0.0022

ClCCOCOCCCl [bis-(2-chloroethoxy)-methane]
Henry solubility constant Hcp: 37

Oc1ccc(Cl)cc1Cl [2,4-dichlorophenol]
Henry solubility constant Hcp: 1.8

O=[N+]([O-])c1ccccc1 [nitrobenzene]
Henry solubility constant Hcp: 0.75

FC(F)(Cl)Cl [dichlorodifluoromethane]
Henry solubility constant Hcp: 6.4e-06

CCCl [chloroethane]
Henry solubility constant Hcp: 0.00066

C=CC=O [propenal]
Henry solubility constant Hcp: 0.14

ClCOCCl [bis-(chloromethyl) ether]
Henry solubility constant Hcp: 0.0047

ClCCOCCCl [1,5-dichloro-3-oxapentane]
Henry solubility constant Hcp: 8.6

CCCCOC(=O)c1ccccc1C(=O)OCc1ccccc1 [butyl benzyl phthalate]
Henry solubility constant Hcp: 9.6

ClCC(Cl)Cl [1,1,2-trichloroethane]
Henry solubility constant Hcp: 0.0013

ClC(Cl)=C(Cl)Cl [tetrachloroethene]
Henry solubility constant Hcp: 0.00063

Clc1ccc(C(c2ccc(Cl)cc2)C(Cl)(Cl)Cl)cc1 [1,1,1-trichloro-2,2-bis-(4-chlorophenyl)-ethane]
Henry solubility constant Hcp: 0.2

Oc1ccccc1Cl [2-hydroxychlorobenzene]
Henry solubility constant Hcp: 2.1

c1ccc2c(c1)cc1ccc3cccc4ccc2c1c34 [benzo[a]pyrene]
Henry solubility constant Hcp: 0.00082

O=[N+]([O-])c1ccc(O)c([N+](=O)[O-])c1 [2,4-dinitrophenol]
Henry solubility constant Hcp: 15000

ClC1=C(Cl)[C@]2(Cl)C3C(Cl)C(Cl)CC3[C@@]1(Cl)C2(Cl)Cl (stereo partly drawn) [chlordane]
Henry solubility constant Hcp: 0.1

C=CCl [chloroethene]
Henry solubility constant Hcp: 0.00065

Cc1ccccc1 [methylbenzene]
Henry solubility constant Hcp: 0.0014

c1ccc2c(c1)-c1cccc3cccc-2c13 [benzo[jk]fluorene]
Henry solubility constant Hcp: 1

ClC1=C(Cl)[C@]2(Cl)[C@@H]3[C@H]4C[C@H]([C@@H]5O[C@H]45)[C@@H]3[C@@]1(Cl)C2(Cl)Cl [endrin]
Henry solubility constant Hcp: 24

ClC(Cl)(Cl)C(Cl)(Cl)Cl [hexachloroethane]
Henry solubility constant Hcp: 0.00098

Clc1cccc(Cl)c1 [1,3-dichlorobenzene]
Henry solubility constant Hcp: 0.0037

ClC1=C(Cl)C2(Cl)C3C4OC4C(Cl)C3C1(Cl)C2(Cl)Cl (stereo not drawn) [heptachlorepoxide]
Henry solubility constant Hcp: 13
